{"source": "paper PMC10604444", "about": "“Extra-Synaptic GABAA Receptor Potentiation and Neurosteroid-Induced Learning Deficits Are Inhibited by GR3027, a GABAA Modulating Steroid Antagonist” (Biomolecules, 2023)", "tested_on": "male Wistar rats", "assay": "Morris water maze (MWM) learning and spatial memory", "assay_type": "in vivo, rat", "conditions": "GR3027 alone 11 mg/kg i.v.", "procedure": "Animals: Male Wistar rats were used to study the effect of AP on learning and spatial memory (Scanbur BK, Sweden). The rats were marked on the tail with a permanent spray (Porcimark™) for identification. A 12/12 h light/dark cycle was used (lights off at 18.00 h), food and water were available ad libitum, and the housing room temperature was kept at 22–23 °C. Animal testing was performed during the light part of the day. After arrival at the animal facility, the handling of all rats was performed for two weeks, including habituation to all relevant experimental procedures. […]\nSpatial memory: Spatial memory was assessed using the Morris water maze (MWM), as previously described in detail, and in brief as follows. […] MWM parameters (latency, path, swimming speed, floating, and thigmotaxis) were monitored and quantified using the computer tracking system Menu 2020 (HVS Image, UK). […]\nSubstances and treatments: AP (3α-OH-5α-pregnan-20-one; 2.0 mg/mL; Umecrine AB, Sweden) and GR3027 (3α-ethynyl-3β-hydroxyl-5α-androstan-17-oxime; 2.0 mg/mL; Umecrine Cognition AB, Stockholm, Sweden) were dissolved in 10% 2-hydroxypropyl-beta-cyclodextrin (β-CD; Sigma, St. Louis, MO, USA) using ultrasound. The various combination treatments were then prepared by mixing these solutions in calculated proportions (Table 1). […]", "data": [{"smiles": "C#C[C@]1(O)CC[C@@]2(C)[C@@H](CC[C@@H]3[C@@H]2CC[C@]2(C)/C(=N/O)CC[C@@H]32)C1", "note": "[GR3027, 3α-ethynyl-3β-hydroxyl-5α-androstan-17-oxime]", "values": [{"measurement": "Swim speed vs groups treated with AP or AP:GR3027 combinations", "setting": "p < 0.05", "result": "lower"}, {"measurement": "Swim speed vs vehicle group", "setting": "p > 0.05", "result": "no different"}]}]}
